According to patent US20150305328A1, “METHODS OF SAFENING SUGAR CANE PLANTS WITH N-ACYLSULFAMOYLPHENYLUREAS” (SYNGENTA PARTICIPATIONS AG, priority 2012, published 2015):

Test system: sugar cane varieties SP803280 and RB835486
Assay: Glasshouse safening test: visual phytotoxicity of pre-emergent herbicides on sugar cane grown from safener-soaked single-node stem sections
Type: in vivo
Procedure: In the following examples, two commercial and contemporary Brazilian sugar cane varieties were used in the experiential testing, SP803280 and RB835486. The sugar cane propagation material was prepared using single-node stem sections approximately 8 cm in length. The stem sections were treated by soaking for about 10 seconds in a solution containing Formula A=1-[4-(N-2-methoxybenzoylsulfamoyl)phenyl]-3-methylurea (15 ml of formulated product in 500 ml water; the formulated product contained 100 grams of Formula A per liter of formulated product). Four stem segments (replicates) were planted in and covered with 1 cm of the regular live loam soil used in glasshouse screening using standard planting troughs, putting each variety in a separate trough. Seeds of one of two appropriate weeds, Euphorbia heterophylla or Brachiaria decumbens were also planted in each trough in a clump to give a measure of relative weeds control alongside crop phytotoxicity. Plants were assessed for percentage visual phytotoxicity at 7 day intervals after application (DAA) up to 35 DAA. Three herbicides, all having different modes-of-action were applied the day after planting as pre-emergent herbicide. The herbicides applied were: clomazone (Gamit®) having a DOXP mode-of-action (inhibition of the 1-desoxy-D-xylulose 5-phosphate), sufentrazone (Boral®) having a PPO mode-of-action (inhibition of protoporphyrinogen oxidase), and bicyclopyrone having an HPPD mode-of-action (inhibition of the enzyme 4-hydoxyphenylpyruvate dioxygenase). Application of each herbicide was applied at 600, 1200, 1600, and 2000 grams per hectare equivalents. Results: Shown in FIGS. 1-12 (DAA—Herbicide—Sugar Cane Variety)

| Compound | safening of sulfentrazone (both varieties of sugar cane, stem sections soaked in Formula A) | phytotoxicity level with sulfentrazone after Formula A treatment (percentage visual phytotoxicity, reduced from 80%, in certain instances) | safening of bicyclopyrone (stem sections soaked in Formula A, bicyclopyrone applied pre-emergent) | safening of clomazone (stem sections soaked in Formula A, clomazone applied pre-emergent) | safening effect as sugar cane propagation material applied safener (with all three herbicides (clomazone, sulfentrazone, bicyclopyrone), applied pre-emergent at 600-2000 g/ha, FIGS. 1-12, 28 and 35 DAA) | phytotoxicity level of sulfentrazone without Formula A safening (sugar cane, in vivo) [%] |
| --- | --- | --- | --- | --- | --- | --- |
| CNC(=O)Nc1ccc(S(=O)(=O)NC(=O)c2ccccc2OC)cc1 [Formula A, 1-[4-(N-2-methoxybenzoylsulfamoyl)phenyl]-3-methylurea] | very effectively | zero | strong safening | strong safening | clear safening effect | – |
| Cc1nn(-c2cc(NS(C)(=O)=O)c(Cl)cc2Cl)c(=O)n1C(F)F [sulfentrazone, reference compound] | – | – | – | – | – | 80 |
